Consider 1 molecule from patent US11110149B2, “Method for predicting and monitoring the efficacy of low-dose IL-2 and hydroxychloroquine therapy in autoimmune diseases and its long-term use in autoimmune-related conditions” (KSL BIOMEDICAL INC., priority 2019, dated 2021).

The subject of data set [1] is Sjögren patients. The following applies: 120 Sjögren patients, vs placebo, after 6 months of therapy; cited from earlier work.
Data set [2] concerns SLE and/or pSS. Nature of the data set: Double-blinded trial of IL-2 plus HCZ regimen: tolerability. The class given is in vivo, human. The note with it: 1 million IU IL-2 SC every other day and HCZ 200 mg Bid PO every day.
The test system of data set [3] is lupus patients. The following applies: systematic review, high level of evidence; cited from earlier work.

With `CCN(CCO)CCCC(C)Nc1ccnc2cc(Cl)ccc12` (stereo not shown) [hydroxychloroquine], in data set [1], the “Primary symptoms of dryness, pain, or fatigue” value is recorded as “no significant improvement”. Besides, in data set [2], the Tolerability of regimen entry is reported as “well tolerated”. In addition, in data set [3], the “Decrease of mortality rates in lupus patients” value was “at least 50%” and the Lupus flares result is listed as “decreases lupus flares”.
